# Values of other authors in patent publication EP0534246A2, “Benzylamine derivatives and medicines with antiarrhythmic activity containing them” (BASF Aktiengesellschaft, priority 1991, dated 1993).
# Molecular target: K^+ATP-Kanal (Homo sapiens, UniProt Q14654)
# Conditions: J. Mol. Cell. Cardiol. 21, Suppl. 2, S. 9, 1989
# Sequence of K^+ATP-Kanal (Q14654 whole entry): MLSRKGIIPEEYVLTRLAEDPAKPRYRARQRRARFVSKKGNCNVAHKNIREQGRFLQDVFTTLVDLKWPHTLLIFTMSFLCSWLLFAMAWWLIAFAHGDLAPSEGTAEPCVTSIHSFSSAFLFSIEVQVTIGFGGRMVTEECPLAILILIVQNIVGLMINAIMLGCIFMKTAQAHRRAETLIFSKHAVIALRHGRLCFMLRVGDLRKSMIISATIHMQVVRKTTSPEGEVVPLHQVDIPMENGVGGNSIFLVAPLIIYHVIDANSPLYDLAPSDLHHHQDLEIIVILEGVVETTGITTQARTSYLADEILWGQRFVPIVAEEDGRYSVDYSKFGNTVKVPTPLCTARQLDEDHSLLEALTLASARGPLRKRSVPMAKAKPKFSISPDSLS
# Sequence of K^+ATP-Kanal (O60706 whole entry partner): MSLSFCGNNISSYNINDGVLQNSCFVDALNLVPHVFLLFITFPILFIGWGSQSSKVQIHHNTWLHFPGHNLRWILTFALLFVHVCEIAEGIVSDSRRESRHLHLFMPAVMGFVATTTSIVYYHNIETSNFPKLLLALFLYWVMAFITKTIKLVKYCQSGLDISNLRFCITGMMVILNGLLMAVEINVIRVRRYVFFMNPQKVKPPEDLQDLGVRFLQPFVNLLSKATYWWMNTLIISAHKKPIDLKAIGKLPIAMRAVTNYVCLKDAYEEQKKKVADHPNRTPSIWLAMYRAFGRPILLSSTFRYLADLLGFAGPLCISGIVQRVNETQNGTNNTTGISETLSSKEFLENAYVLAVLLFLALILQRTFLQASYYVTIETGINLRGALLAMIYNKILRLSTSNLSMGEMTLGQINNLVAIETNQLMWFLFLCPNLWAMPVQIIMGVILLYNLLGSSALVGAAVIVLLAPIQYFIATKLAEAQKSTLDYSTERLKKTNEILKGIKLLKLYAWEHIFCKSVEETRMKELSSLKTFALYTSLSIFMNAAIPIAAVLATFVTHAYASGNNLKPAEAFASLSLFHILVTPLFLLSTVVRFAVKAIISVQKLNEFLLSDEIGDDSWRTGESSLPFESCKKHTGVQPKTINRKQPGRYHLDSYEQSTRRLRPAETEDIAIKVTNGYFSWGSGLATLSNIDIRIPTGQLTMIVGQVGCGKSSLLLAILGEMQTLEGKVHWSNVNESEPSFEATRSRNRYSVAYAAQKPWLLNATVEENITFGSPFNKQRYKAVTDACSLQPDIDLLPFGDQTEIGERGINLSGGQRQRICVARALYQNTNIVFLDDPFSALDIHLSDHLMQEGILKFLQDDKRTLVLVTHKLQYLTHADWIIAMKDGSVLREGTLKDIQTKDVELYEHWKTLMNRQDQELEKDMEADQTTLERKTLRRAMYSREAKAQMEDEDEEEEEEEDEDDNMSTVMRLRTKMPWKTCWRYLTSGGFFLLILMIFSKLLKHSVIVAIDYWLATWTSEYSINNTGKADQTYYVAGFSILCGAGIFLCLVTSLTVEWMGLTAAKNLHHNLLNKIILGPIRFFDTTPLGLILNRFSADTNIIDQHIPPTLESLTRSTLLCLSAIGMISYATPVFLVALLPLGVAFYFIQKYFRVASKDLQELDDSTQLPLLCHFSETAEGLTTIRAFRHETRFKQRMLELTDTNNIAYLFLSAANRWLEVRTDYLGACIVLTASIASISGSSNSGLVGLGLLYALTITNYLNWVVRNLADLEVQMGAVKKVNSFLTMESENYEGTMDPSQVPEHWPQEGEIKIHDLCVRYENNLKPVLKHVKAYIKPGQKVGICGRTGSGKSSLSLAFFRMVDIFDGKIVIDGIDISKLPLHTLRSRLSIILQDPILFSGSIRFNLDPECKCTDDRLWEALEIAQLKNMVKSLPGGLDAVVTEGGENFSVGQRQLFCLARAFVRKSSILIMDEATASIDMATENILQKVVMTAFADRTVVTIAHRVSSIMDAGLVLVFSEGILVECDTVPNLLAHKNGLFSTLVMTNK
compound,measurement,value
CCCCCC(O)CCCC(=O)O (stereo not shown) [5-Hydroxydekanoat],"Konzentration, bei der Wirkung gezeigt wird (Blocker des ATP-abhängigen K+-Kanals)",ca. 100 um
